These results are taken from US20250257060A1, “OXADIAZOLE COMPOUND, PHARMACEUTICAL COMPOSITION COMPRISING SAME, AND USE THEREOF” (SUZHOU GENHOUSE BIO CO., LTD., priority 2022, published 2025).

The nature of data set [1]: Brain-to-blood drug concentration ratio of mice. Format: in vivo. The note with it: mouse, 5 mg/kg PO, 2 h; for Kp at 2 h: brain/plasma. The procedure:
On the day of administration, mice were weighed for actual body weight and the administration volume was calculated. In each group of 9 mice, the compound was administered by single intravenous (IV) injection or intragastric (PO) administration. Whole blood samples were collected via the orbit at prescribed time points. After blood sample collection, the samples were immediately transferred to labeled commercial sample tubes containing K2-EDTA (0.85-1.15 mg), followed by centrifugation (3200×g, 4° C., 10 min) and plasma collection. The plasma was transferred to a pre-cooled centrifuge tube, frozen in dry ice, and stored in an ultra-low temperature freezer at −60° C. or lower until the LC-MS/MS analysis. 20 μL of a plasma sample or brain tissue homogenate was taken and 80 μL of an internal standard solution (50 ng/mL solution of propafenone in acetonitrile) was added. The plate was sealed with a film sealer at 165° C., shaken on a micro oscillator (maximum vibration speed) for 10 min, and centrifuged at 4000 rpm for 20 min using a low-speed benchtop centrifuge, 10 μL of supernatant was transferred and 90 μL of acetonitrile was added. The mixture was vortexed and mixed well, and then the plate was sealed with the film sealer at 165° C. After the mixture was vortexed and mixed well, 1 μL of supernatant was taken for LC-MS/MS analysis. Plasma drug concentration data for the compounds were processed in a non-compartmental model using WinNonlin Version 6.3 (Pharsight, Mountain View, CA) pharmacokinetic software. The relevant pharmacokinetic parameters were calculated by a linear logarithmic trapezoid method.
Data processing: brain-to-blood drug concentration ratio of mice at the same time point=drug concentration in brain tissue/drug concentration in plasma

A further data set addresses HDAC6 (Homo sapiens (Human), UniProt Q9UBN7). Nature of the data set: HDAC6 enzymatic activity assay. Format: biochemical. The procedure:
The inhibitory activity of the compounds of the present application against HDAC6 was evaluated by an enzymatic activity assay. HDAC6 (Abcam), test compounds, and a 20 µM substrate solution (Ac-GAK(Ac)-AMC) were each added to a 384-well plate, and the plate was incubated at 37° C. for 30 min. […] and […] were added, and the plate was incubated at room temperature for 15 min. […] IC50 was obtained by fitting using GraphPadPrism 7.0 software.

The nature of data set [2]: Pharmacokinetic test in mice (IV and PO). Format: in vivo, BALB/c mice. The conditions noted are these: for MRT inf: read-out: MRT(0-∞). The procedure: In this example, the pharmacokinetic behavior of the compounds after intravenous injection (IV) and intragastric (PO) administration in BALB/c mice was tested.
On the day of administration, mice were weighed for actual body weight and the administration volume was calculated. Each compound was tested in two groups with 3 mice in each group, one group administered by single intravenous injection and the other group of mice by single intragastric administration. Whole blood samples were collected via the orbit at prescribed time points (0.25 h, 0.5 h, 1 h, 2 h, 4 h, 8 h, and 24 h after administration). After blood sample collection, the samples were immediately transferred to labeled commercial sample tubes containing K2-EDTA (0.85-1.15 mg), followed by centrifugation (3200×g, 4° C., 10 min) and plasma collection. The plasma was transferred to a pre-cooled centrifuge tube, frozen in dry ice, and stored in an ultra-low temperature freezer at −60° C. or lower until the LC-MS/MS analysis.
Plasma concentrations were determined by a LC-MS/MS method. Plasma drug concentration data for compounds 1 and 2 were processed in a non-compartmental model using WinNonlin Version 6.3 (Pharsight, Mountain View, CA) pharmacokinetic software. The relevant pharmacokinetic parameters were calculated by a linear logarithmic trapezoid method.

The mark [3] stands for this setting: brain, read-out: Brain drug concentration.
[4] abbreviates: plasma, read-out: Blood drug concentration.
The mark [5] stands for this setting: BALB/c, mouse, plasma, mice, IV 1 mg/kg.
Where [6] appears, read: BALB/c, mouse, plasma, mice, PO 5 mg/kg.

SMILES strings stand for the structures. Like-named read-outs stand apart in the source and are kept apart here.

Chain of HDAC6 (Q9UBN7 whole entry): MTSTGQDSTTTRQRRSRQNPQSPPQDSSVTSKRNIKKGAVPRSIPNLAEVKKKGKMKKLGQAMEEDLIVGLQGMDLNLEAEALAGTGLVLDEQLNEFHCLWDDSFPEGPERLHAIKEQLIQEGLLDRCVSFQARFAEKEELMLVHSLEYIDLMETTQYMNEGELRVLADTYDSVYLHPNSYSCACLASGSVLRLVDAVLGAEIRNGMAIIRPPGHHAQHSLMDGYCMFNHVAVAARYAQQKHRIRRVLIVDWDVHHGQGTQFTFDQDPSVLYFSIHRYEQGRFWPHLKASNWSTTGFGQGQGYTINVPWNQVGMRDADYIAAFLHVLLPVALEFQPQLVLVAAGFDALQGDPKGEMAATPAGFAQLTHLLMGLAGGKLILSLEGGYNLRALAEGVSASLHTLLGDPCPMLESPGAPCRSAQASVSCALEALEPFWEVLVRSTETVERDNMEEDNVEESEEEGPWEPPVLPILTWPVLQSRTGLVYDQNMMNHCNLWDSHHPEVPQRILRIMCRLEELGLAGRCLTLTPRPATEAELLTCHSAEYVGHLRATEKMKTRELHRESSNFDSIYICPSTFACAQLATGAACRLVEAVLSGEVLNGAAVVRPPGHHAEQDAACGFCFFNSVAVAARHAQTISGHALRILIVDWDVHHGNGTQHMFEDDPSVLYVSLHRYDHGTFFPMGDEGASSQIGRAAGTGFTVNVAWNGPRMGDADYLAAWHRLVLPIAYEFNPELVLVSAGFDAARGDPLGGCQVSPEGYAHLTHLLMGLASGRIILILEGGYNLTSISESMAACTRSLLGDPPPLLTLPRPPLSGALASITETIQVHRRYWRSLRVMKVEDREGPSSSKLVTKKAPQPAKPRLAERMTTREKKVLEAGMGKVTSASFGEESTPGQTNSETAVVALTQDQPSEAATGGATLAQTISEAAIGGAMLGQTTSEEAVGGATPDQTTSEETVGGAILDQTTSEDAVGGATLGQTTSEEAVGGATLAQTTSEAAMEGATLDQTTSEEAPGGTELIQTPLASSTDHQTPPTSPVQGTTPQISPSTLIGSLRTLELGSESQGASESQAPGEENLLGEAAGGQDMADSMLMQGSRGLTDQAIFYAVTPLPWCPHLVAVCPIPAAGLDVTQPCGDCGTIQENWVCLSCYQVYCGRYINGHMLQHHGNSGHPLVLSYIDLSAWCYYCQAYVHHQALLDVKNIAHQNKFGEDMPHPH

Consider `O=S(=O)(N[C@@H]1CCCC[C@H]1N1Cc2ccc(-c3nnc(C(F)F)o3)cc2S1(=O)=O)C1CC1` [Compound 4], for which the concentration at 2 h in data set [1] (setting [3]) was determined as 190 ng/mL; in data set [1] (setting [4]), 2260 ng/mL. In data set [1], the Kp – broadly, tissue or fluid exposure divided by exposure in the circulation – at 2 h came out at 0.08. Further, the half-maximal inhibitory concentration (IC50) (usually the midpoint of a concentration-inhibition curve) on HDAC6 stood at 154 nM.
As to `CN(C)C(=O)N[C@@H]1CCCC[C@H]1N1Cc2ccc(-c3nnc(C(F)F)o3)cc2S1(=O)=O` [Compound 93], in data set [1] (setting [3]), the concentration at 2 h was 27 ng/mL. In data set [1], the Kp at 2 h turned out to be 0.11. The concentration at 2 h in data set [1] (setting [4]) came out at 252 ng/mL. The molecule also displayed an IC50 against HDAC6 of 133 nM. Moreover, in data set [2] (BALB/c, mouse, plasma, po, 5 mg/kg, read-out: C0/Cmax), the Cmax was determined as 3410 nM. In data set [2] (setting [5]), the AUC(0-inf) – broadly, the area under the concentration-time curve extrapolated to infinity – was found to be 1.08 µM·h; the AUC(0-t) – broadly, the area under the concentration-time curve up to a stated or last time point – worked out at 1.07 µM·h; the MRT inf came to 36 min. In data set [2] (BALB/c, mouse, plasma, mice, IV 1 mg/kg (C0)), this molecule gave a Cmax of 2110 nM. For the same molecule, the Vd in data set [2] (BALB/c, mouse, plasma, mice, IV 1 mg/kg, read-out: Vz) was determined as 1.9 L/kg. Also, in data set [2] (setting [6]), the AUC(0-inf) worked out at 4.57 µM·h; the AUC(0-t) stood at 4.56 µM·h; the Tmax (as a rule, the time from dosing to the highest level) came to 30 min; the MRT inf is 72 min. In data set [2] (mice, IV 1 mg/kg), this molecule displayed a CLz of 33.3 mL/min/kg and a t½z of 42 min. In data set [2] (mice, PO 5 mg/kg), this molecule had an F of 84.4% and a t½z of 42 min.
Molecule `O=S1(=O)c2cc(-c3nnc(C(F)F)o3)ccc2CN1[C@@H](c1ncccn1)[C@H](O)c1ncccn1` [Compound 103j-A] came in with an IC50 at HDAC6 of 285 nM.
The same measure, in the same setting: as for `O=S1(=O)c2cc(-c3nnc(C(F)F)o3)ccc2CN1[C@H](c1ncccn1)[C@@H](O)c1ncccn1` [Compound 103j-B], the figure is 108 nM.
On the same count and under the same terms, as for `O=S1(=O)c2cc(-c3nnc(C(F)F)o3)ccc2CN1[C@@H](c1ncccn1)[C@@H](O)c1ncccn1` [Compound 103j-C], the figure is 226 nM; as for `O=S1(=O)c2cc(-c3nnc(C(F)F)o3)ccc2CN1[C@H](c1ncccn1)[C@H](O)c1ncccn1` [Compound 103j-D], 231 nM; as for `O=C(NC1CC1)N[C@@H]1CCCC[C@H]1N1Cc2ccc(-c3nnc(C(F)F)o3)cc2S1(=O)=O` [Compound 109], 89.8 nM.
The same measure, in the same setting: as for `O=C(NCC1CC1)N[C@@H]1CCCC[C@H]1N1Cc2ccc(-c3nnc(C(F)F)o3)cc2S1(=O)=O` [Compound 110], the figure is 325 nM.
In turn, `O=C(N[C@@H]1CCCC[C@H]1N1Cc2ccc(-c3nnc(C(F)F)o3)cc2S1(=O)=O)N1CCCC1` [Compound 112] came in with an IC50 against HDAC6 of 141 nM.
The same measure, in the same setting: as for `O=S1(=O)c2cc(-c3nnc(C(F)F)o3)ccc2CN1[C@@H]1CCCC[C@H]1NS(=O)(=O)C(F)(F)F` [Compound 116], the figure is 173 nM.
Still for that read-out and setting: as for `O=S1(=O)c2cc(-c3nnc(C(F)F)o3)ccc2CN1c1ccccc1-c1ccccn1` [Compound 117], the figure is 449 nM.
